The NIST ThermoML archive (doi:10.1016/j.tca.2015.04.027)

Experiments:
[1] = 87 kPa, Liquid, Vibrating tube method
[2] = xn = mol fraction of the nth substance listed; conditions: 87 kPa, Liquid, Vibrating tube method

OC(CCl)CCl [1,3-dichloro-2-propanol]
[1]
Conditions	mass density [kg/m3]
298.15 K	1356.46
303.15 K	1350.55
308.15 K	1344.61
313.15 K	1338.56
318.15 K	1332.47

OC(CCl)CCl [1,3-dichloro-2-propanol] + C=CCO
mass density [kg/m3], [2]
Conditions	298.15 K	303.15 K	308.15 K	313.15 K	318.15 K
x1 = 0.0927	914.27	909.73	905.11	900.45	895.75
x1 = 0.1927	978.2	973.46	968.64	963.78	958.88
x1 = 0.2704	1024.81	1019.93	1014.97	1009.97	1004.93
x1 = 0.3548	1072.33	1067.35	1062.2	1057.06	1051.87
x1 = 0.4555	1125.39	1120.22	1114.94	1109.64	1104.29
x1 = 0.4973	1146.3	1141.05	1135.75	1130.35	1124.95
x1 = 0.6062	1198.1	1192.65	1187.2	1181.65	1176.1
x1 = 0.7166	1246.88	1241.35	1235.7	1230.01	1224.28
x1 = 0.8004	1281.46	1275.78	1270	1264.19	1258.35
x1 = 0.8893	1316.06	1310.26	1304.41	1298.46	1292.49
x1 = 0.9452	1336.81	1330.96	1325.07	1319.07	1313.05
x1 = 1	1356.46	1350.55	1344.61	1338.56	1332.47

OC(CCl)CCl [1,3-dichloro-2-propanol] + CCOS(=O)(=O)[O-].CCn1cc[n+](C)c1
mass density [kg/m3], [2]
Conditions	298.15 K	303.15 K	308.15 K	313.15 K	318.15 K
x1 = 0.0638	1239	1235.7	1232.4	1229	1225.55
x1 = 0.1199	1241.65	1238.3	1234.9	1231.6	1228.1
x1 = 0.2073	1246.7	1243.39	1239.87	1236.36	1232.86
x1 = 0.2973	1252.5	1249.05	1245.5	1241.9	1238.2
x1 = 0.3964	1259.8	1256.2	1252.5	1248.7	1245.1
x1 = 0.505	1269.3	1265.55	1261.5	1257.6	1253.9
x1 = 0.6616	1286.79	1282.36	1278.15	1274	1270
x1 = 0.7527	1300	1295.49	1291.17	1286.8	1282.3
x1 = 0.8236	1313	1308.44	1304	1299.5	1294.6
x1 = 0.9012	1329.59	1324.72	1319.69	1314.64	1309.58
x1 = 0.9645	1346	1340.45	1335.3	1329.4	1323.7
x1 = 1	1356.46	1350.55	1344.61	1338.56	1332.47

CCOS(=O)(=O)[O-].CCn1cc[n+](C)c1 [1-ethyl-3-methylimidazolium ethyl sulfate]
[1]
Conditions	mass density [kg/m3]
298.15 K	1236.42
303.15 K	1233.09
308.15 K	1229.72
313.15 K	1226.36
318.15 K	1223

CCOS(=O)(=O)[O-].CCn1cc[n+](C)c1 [1-ethyl-3-methylimidazolium ethyl sulfate] + C=CCO
[2], x2 = 0
Conditions	mass density [kg/m3]
298.15 K	1236.42
303.15 K	1233.09
308.15 K	1229.72
313.15 K	1226.36
318.15 K	1223

CCOS(=O)(=O)[O-].CCn1cc[n+](C)c1 [1-ethyl-3-methylimidazolium ethyl sulfate] + OC(CCl)CCl
[2], x2 = 0
Conditions	mass density [kg/m3]
298.15 K	1236.42
303.15 K	1233.09
308.15 K	1229.72
313.15 K	1226.36
318.15 K	1223

C=CCO [2-propenol]
[1]
Conditions	mass density [kg/m3]
298.15 K	850.4
303.15 K	846.02
308.15 K	841.59
313.15 K	837.13
318.15 K	832.63

C=CCO [2-propenol] + CCOS(=O)(=O)[O-].CCn1cc[n+](C)c1
mass density [kg/m3], [2]
Conditions	298.15 K	303.15 K	308.15 K	313.15 K	318.15 K
x1 = 0.0988	1223.65	1220.28	1216.87	1213.47	1210.09
x1 = 0.1811	1211.14	1207.72	1204.27	1200.85	1197.44
x1 = 0.2833	1193.07	1189.54	1186.02	1182.52	1179.15
x1 = 0.4107	1165.72	1162.19	1158.64	1155.11	1151.59
x1 = 0.4939	1143.57	1140.1	1136.5	1133	1129.55
x1 = 0.5909	1112.3	1109.47	1105.88	1102.21	1098.55
x1 = 0.7086	1064.08	1061.4	1058	1054.02	1049.98
x1 = 0.8066	1012	1009.5	1005.8	1001.87	997.66
x1 = 0.9057	942.5	939.58	935.46	931.33	927.19
x1 = 0.9835	869.29	865.2	860.9	856.62	852.28
x1 = 1	850.4	846.02	841.59	837.13	832.63

C=CCO [2-propenol] + OC(CCl)CCl
[2], x2 = 0
Conditions	mass density [kg/m3]
298.15 K	850.4
303.15 K	846.02
308.15 K	841.59
313.15 K	837.13
318.15 K	832.63
